What was measured:
[1] = target: Casein kinase II subunit alpha (Homo sapiens) (UniProt P68400); details: Compound concentration 1.0 uM
[2] = target: Serine/threonine-protein kinase WNK2 (Homo sapiens) (UniProt Q9Y3S1); details: Compound concentration 1.0 uM
[3] = target: T1, Ephrin type-B receptor 2 (Homo sapiens) (UniProt P29323); details: Compound concentration 1.0 uM
T1 sequence (whole entry): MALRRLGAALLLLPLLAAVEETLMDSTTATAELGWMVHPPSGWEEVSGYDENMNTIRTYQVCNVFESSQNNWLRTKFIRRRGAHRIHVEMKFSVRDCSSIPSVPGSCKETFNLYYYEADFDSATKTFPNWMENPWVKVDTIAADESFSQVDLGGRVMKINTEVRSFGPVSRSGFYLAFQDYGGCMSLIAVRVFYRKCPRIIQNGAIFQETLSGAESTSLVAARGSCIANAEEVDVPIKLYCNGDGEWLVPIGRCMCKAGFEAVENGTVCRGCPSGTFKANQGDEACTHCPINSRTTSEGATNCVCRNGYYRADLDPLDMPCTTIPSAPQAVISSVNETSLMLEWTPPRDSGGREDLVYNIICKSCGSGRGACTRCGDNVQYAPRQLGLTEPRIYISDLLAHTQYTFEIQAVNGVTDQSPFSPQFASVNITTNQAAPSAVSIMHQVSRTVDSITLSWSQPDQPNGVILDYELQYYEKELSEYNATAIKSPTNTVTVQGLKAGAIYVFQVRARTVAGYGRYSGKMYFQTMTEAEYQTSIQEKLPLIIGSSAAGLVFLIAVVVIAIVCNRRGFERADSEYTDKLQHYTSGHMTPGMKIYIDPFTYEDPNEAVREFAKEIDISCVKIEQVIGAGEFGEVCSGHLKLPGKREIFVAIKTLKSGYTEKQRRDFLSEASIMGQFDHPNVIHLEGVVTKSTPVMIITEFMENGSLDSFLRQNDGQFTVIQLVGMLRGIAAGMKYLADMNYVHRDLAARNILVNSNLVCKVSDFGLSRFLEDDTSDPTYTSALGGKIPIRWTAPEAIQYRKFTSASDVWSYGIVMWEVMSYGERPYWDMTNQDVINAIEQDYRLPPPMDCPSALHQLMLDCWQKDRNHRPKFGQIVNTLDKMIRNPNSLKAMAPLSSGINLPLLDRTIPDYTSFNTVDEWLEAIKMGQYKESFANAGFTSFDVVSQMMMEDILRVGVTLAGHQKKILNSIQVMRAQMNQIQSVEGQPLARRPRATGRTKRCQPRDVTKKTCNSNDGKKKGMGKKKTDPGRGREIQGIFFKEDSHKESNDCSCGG

[4] = target: Protein kinase C beta type (Homo sapiens) (UniProt P05771); details: Compound concentration 1.0 uM
[5] = target: CDK7/Cyclin H/MNAT1 (Homo sapiens) (UniProt P51946+P50613+P51948); details: Compound concentration 1.0 uM
[6] = target: Death-associated protein kinase 3 (Homo sapiens) (UniProt O43293); details: Compound concentration 1.0 uM
Chain of Death-associated protein kinase 3 (Homo sapiens) (O43293 whole entry, looked up): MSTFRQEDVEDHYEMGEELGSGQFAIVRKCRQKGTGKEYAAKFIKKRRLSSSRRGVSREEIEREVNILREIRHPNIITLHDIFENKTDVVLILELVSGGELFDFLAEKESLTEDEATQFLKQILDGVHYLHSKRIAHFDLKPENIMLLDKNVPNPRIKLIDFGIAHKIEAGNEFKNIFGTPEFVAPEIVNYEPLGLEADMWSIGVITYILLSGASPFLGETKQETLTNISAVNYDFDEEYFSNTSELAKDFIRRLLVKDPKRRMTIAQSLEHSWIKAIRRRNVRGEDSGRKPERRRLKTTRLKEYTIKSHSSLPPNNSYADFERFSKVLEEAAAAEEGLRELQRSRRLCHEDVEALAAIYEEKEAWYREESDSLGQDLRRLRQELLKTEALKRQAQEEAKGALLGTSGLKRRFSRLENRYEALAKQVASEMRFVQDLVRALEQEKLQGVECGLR

[7] = target: Calcium/calmodulin-dependent protein kinase type II subunit delta (Homo sapiens) (UniProt Q13557); details: Compound concentration 1.0 uM
[8] = target: 5'-AMP-activated protein kinase catalytic subunit alpha-1 (Homo sapiens) (UniProt Q13131); details: Compound concentration 1.0 uM
[9] = target: 5'-AMP-activated protein kinase catalytic subunit alpha-2 (Homo sapiens) (UniProt P54646); details: Compound concentration 1.0 uM
[10] = target: Insulin-like growth factor 1 receptor (Homo sapiens) (UniProt P08069); details: Compound concentration 1.0 uM
Chain of Insulin-like growth factor 1 receptor (Homo sapiens) (P08069 31-736 limits assumed): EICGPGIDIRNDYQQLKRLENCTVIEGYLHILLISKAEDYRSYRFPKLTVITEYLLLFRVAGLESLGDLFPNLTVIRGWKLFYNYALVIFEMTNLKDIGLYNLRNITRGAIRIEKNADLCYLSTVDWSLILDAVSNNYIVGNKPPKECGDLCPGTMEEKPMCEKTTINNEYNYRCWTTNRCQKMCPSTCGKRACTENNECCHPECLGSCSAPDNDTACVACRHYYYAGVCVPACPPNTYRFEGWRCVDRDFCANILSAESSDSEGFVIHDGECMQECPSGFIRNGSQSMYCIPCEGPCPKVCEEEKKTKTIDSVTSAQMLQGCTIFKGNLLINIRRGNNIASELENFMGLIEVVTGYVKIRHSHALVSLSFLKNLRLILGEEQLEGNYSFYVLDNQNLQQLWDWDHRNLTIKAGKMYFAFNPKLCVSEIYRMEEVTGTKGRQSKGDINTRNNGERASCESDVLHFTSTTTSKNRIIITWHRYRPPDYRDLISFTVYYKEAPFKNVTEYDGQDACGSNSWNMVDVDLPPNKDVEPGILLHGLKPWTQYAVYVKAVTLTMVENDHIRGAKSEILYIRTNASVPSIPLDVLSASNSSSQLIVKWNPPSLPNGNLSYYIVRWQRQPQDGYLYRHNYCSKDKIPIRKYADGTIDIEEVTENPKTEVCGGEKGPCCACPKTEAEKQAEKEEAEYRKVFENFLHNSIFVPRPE
Chain of Insulin-like growth factor 1 receptor (Homo sapiens) (P08069 741-1367 limits assumed): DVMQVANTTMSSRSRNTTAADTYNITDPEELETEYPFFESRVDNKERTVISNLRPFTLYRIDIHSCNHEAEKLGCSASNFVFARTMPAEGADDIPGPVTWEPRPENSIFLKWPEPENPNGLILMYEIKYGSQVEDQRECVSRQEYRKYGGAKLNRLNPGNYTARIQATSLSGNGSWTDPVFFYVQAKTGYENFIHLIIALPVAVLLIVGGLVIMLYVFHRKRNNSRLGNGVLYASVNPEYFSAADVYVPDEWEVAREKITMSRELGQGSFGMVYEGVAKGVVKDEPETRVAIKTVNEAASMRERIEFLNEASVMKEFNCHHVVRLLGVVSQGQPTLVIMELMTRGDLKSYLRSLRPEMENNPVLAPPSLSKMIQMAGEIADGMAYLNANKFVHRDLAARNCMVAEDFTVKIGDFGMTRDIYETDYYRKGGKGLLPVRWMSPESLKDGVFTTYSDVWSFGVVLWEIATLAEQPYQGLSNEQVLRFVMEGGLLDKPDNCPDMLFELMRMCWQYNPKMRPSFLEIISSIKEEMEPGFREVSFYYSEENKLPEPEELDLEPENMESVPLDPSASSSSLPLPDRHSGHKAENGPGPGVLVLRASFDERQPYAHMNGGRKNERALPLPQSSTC

[11] = target: T2, Serine/threonine-protein kinase Nek1 (Homo sapiens) (UniProt Q96PY6); details: Compound concentration 1.0 uM
T2 sequence (whole entry): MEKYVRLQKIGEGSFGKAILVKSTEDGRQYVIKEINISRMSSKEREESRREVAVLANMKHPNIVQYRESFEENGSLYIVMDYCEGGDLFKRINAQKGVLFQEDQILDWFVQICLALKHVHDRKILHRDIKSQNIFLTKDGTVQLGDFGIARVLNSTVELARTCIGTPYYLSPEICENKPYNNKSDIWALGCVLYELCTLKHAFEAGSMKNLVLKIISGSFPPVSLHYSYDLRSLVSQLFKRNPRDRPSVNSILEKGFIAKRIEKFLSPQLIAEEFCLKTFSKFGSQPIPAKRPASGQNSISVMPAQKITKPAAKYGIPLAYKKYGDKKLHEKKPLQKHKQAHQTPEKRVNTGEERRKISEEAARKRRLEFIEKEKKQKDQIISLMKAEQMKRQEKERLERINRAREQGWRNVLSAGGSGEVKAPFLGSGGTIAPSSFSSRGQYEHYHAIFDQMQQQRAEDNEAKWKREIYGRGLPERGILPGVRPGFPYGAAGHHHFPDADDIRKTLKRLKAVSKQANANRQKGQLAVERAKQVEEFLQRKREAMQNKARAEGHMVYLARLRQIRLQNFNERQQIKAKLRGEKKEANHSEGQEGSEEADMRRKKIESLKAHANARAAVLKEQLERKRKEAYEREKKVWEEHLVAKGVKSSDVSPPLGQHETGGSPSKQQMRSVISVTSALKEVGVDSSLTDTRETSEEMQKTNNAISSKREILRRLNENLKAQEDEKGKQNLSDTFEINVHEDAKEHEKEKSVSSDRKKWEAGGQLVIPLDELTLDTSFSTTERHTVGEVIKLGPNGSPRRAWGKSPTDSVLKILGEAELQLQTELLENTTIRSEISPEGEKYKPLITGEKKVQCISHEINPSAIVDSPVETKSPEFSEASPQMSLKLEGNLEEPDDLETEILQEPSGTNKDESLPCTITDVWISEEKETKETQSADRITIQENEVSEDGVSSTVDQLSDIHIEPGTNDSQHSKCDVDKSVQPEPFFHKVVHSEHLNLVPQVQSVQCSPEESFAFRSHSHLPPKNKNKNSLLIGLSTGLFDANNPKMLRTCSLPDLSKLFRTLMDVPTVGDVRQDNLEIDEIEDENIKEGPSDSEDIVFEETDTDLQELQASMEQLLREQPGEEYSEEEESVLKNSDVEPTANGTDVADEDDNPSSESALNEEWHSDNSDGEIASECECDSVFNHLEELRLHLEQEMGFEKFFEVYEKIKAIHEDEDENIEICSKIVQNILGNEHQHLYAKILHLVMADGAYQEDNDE

[12] = target: 5-hydroxytryptamine receptor 2C (Homo sapiens) (UniProt P28335); details: Compound concentration 10.0 uM
Chain of 5-hydroxytryptamine receptor 2C (Homo sapiens) (P28335 whole entry): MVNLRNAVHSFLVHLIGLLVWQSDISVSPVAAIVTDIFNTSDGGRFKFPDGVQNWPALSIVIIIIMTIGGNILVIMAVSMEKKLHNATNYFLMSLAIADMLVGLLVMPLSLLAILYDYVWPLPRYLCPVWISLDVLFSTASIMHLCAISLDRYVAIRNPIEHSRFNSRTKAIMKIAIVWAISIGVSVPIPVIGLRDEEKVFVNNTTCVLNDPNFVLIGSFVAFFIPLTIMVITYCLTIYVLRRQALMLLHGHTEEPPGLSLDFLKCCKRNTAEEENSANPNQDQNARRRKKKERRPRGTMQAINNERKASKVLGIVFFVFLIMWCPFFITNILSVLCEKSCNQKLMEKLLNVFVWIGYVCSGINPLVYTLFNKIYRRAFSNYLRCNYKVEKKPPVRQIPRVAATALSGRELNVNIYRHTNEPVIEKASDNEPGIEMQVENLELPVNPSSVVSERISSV

[13] = target: RAC-alpha serine/threonine-protein kinase (Homo sapiens) (UniProt P31749); details: Compound concentration 1.0 uM
Chain of RAC-alpha serine/threonine-protein kinase (Homo sapiens) (P31749 whole entry): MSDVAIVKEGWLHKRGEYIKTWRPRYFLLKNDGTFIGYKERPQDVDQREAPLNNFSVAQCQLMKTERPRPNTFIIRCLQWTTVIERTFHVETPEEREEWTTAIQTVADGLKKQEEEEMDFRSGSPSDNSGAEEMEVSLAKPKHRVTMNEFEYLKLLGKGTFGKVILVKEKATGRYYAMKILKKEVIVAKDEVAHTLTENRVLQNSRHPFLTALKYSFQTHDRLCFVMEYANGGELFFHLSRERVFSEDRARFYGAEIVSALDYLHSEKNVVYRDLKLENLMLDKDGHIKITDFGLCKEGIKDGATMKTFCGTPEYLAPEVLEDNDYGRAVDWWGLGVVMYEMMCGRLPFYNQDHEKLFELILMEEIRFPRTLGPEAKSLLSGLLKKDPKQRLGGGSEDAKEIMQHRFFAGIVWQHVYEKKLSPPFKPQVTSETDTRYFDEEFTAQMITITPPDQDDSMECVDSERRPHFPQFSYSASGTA

Chain of Serine/threonine-protein kinase WNK2 (Homo sapiens) (Q9Y3S1 whole entry): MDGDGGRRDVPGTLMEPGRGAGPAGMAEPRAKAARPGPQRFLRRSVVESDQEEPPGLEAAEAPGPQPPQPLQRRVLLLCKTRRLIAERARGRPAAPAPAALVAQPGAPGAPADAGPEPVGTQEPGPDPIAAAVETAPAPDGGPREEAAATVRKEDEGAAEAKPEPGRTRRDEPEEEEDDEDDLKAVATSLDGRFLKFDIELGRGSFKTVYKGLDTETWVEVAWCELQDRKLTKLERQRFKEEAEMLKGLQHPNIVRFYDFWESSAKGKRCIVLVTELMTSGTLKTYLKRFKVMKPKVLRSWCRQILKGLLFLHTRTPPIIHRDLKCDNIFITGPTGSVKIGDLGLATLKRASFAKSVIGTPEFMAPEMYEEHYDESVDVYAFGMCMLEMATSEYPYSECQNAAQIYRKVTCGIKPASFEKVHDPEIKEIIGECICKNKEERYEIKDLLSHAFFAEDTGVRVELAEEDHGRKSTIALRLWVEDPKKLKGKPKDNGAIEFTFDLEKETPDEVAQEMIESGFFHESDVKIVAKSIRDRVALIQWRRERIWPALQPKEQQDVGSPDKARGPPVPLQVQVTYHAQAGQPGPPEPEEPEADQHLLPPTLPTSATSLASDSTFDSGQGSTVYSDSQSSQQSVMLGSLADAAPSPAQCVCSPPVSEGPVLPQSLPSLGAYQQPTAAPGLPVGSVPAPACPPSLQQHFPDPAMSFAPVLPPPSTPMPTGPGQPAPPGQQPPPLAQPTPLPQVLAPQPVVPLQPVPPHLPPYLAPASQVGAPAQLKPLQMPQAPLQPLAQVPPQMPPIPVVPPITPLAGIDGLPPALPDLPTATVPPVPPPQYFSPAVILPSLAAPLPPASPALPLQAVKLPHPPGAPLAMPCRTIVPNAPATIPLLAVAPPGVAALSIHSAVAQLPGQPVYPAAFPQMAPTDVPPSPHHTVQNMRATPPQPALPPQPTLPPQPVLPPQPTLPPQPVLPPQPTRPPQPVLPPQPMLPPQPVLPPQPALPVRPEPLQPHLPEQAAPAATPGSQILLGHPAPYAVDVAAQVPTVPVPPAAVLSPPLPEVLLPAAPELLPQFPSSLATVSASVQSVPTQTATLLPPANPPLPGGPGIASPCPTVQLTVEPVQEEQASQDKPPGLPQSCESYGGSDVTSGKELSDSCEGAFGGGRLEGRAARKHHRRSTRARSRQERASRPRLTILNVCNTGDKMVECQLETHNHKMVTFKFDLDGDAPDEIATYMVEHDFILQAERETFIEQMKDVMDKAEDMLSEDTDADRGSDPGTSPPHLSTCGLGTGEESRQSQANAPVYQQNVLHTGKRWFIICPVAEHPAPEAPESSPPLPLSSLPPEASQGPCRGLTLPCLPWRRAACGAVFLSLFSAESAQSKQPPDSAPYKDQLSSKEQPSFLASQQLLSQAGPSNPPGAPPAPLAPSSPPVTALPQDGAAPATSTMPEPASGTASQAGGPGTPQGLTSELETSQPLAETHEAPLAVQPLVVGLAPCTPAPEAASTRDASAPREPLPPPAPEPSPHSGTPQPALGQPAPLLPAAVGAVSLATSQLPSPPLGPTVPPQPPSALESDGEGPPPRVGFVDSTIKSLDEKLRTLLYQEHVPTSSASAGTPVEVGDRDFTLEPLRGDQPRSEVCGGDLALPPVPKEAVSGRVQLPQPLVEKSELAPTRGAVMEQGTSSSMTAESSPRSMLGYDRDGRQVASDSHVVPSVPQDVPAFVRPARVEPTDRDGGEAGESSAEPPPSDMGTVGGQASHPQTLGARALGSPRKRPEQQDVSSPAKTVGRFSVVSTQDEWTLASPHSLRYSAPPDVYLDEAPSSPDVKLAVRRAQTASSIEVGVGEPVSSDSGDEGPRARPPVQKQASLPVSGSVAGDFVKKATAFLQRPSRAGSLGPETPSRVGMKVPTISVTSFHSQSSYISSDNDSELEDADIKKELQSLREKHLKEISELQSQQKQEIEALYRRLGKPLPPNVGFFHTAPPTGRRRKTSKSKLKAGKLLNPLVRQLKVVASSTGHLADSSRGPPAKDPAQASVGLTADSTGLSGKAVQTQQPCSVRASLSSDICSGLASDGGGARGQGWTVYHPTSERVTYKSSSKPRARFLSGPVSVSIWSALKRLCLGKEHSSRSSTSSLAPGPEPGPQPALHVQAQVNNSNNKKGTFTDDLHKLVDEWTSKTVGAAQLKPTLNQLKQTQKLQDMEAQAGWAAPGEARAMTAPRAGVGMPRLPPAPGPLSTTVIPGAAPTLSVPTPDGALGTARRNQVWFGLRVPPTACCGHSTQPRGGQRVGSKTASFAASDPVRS

CN1CCN(c2cnc3c(C4CCN(C(=O)c5ccc(OC(F)(F)F)cc5N)CC4)ncnc3c2)CC1 [BAY-885]
inactive: % residual kinase activity [1] 92% | % residual kinase activity [2] 107% | % residual kinase activity [3] 93% | % residual kinase activity [4] 112% | % residual kinase activity [5] 99% | % residual kinase activity [6] 111% | % residual kinase activity [7] 95% | % residual kinase activity [8] 101% | % residual kinase activity [9] 109% | % residual kinase activity [10] 90% | % residual kinase activity [11] 98% | inhibition [12] -4.77% | % residual kinase activity [13] 113%

From ChEMBL document CHEMBL4507268 (2021)
